Data: patent US11718622B2, “Heterocyclic adenosine receptor antagonists” (Exelixis, Inc., priority 2020, dated 2023)

What was measured:
[1] = molecular target: Adenosine A2a (ADORA2A) receptor (Homo sapiens (Human), UniProt P29274); test: ADORA2A Receptor Binding Assay; details: radioligand binding, membrane stock
Experimental: ADORA1A and ADORA2A Receptor Binding Assay
2 μL of each compound (test compounds, high control compound, low control compound) was transferred into individual wells of an assay plate. Also to each individual well, 98 μL of Adenosine A1a membrane stock (for ADORA1A Receptor Binding Assay) or Adenosine A2a membrane stock (for ADORA2A Receptor Binding Assay) was dispensed, followed by 100 μL of radio-labeled ligand. Plates were then sealed, and incubated at room temperature for 1 hour (for ADORA1A Receptor Binding Assay) or 2 hours (for ADORA2A Receptor Binding Assay). Unifilter-96 GF/C filter plates were pre-soaked with 50 μL of 0.3% PEI per well for at least 30 min at room temperature. When binding assays were completed, reaction mixtures were filtered through GF/C plates using a Perkin Elmer Filtermate Harvester, and then each plate was washed 4× with cold wash buffer. Filter plates were then dried for 1 hour at 50° C. After drying, the bottom of the filter plate wells was sealed using Perkin Elmer Unifilter-96 backing seal tape. 50 μL of Perkin Elmer Microscint 20 cocktail was then added, and the top of the filter plate was then sealed using Perkin Elmer TopSeal-A sealing film. ^3H trapped on the filter was counted using a Perkin Elmer MicroBeta2 Reader. Data analysis was performed using GraphPad Prism 5 software, and the “Inhibition [% Control]” was calculated using the following equation: % Inh=(1−Background subtracted Assay value/Background subtracted HC value)*100.

[2] = molecular target: Adenosine A2B (ADORA2B) receptor (Homo sapiens (Human), UniProt P29275); test: ADORA2B Receptor Binding Assay; details: radioligand binding, membrane stock
Experimental: ADORA2B Receptor Binding Assay
100 μL of Adenosine A2B membrane stock was dispensed into individual wells of an assay plate. 1 μL of each compound (test compounds, high control compound, low control compound) was then transferred into individual wells, followed by 100 μL of radio-labeled ligand. Plates were then sealed, and incubated at room temperature for 1 hour. Unifilter-96 GF/C filter plates were pre-soaked with 50 μL of 0.5% BSA per well for at least 30 min at room temperature. When binding assays were completed, reaction mixtures were filtered through GF/C plates using a Perkin Elmer Filtermate Harvester, and then each plate was washed 4× with cold wash buffer. Filter plates were then dried for 1 hour at 50° C. After drying, the bottom of the filter plate wells was sealed using Perkin Elmer Unifilter-96 backing seal tape. 50 μL of Perkin Elmer Microscint 20 cocktail was then added, and the top of the filter plate was then sealed using Perkin Elmer TopSeal-A sealing film. ^3H trapped on the filter was counted using a Perkin Elmer MicroBeta2 Reader. Data analysis was performed using GraphPad Prism 5 software, and the “Inhibition[% Control]” was calculated using the following equation: % Inh=(1−Background subtracted Assay value/Background subtracted HC value)*100.

Sequence of Adenosine A2B (ADORA2B) receptor (P29275 whole entry): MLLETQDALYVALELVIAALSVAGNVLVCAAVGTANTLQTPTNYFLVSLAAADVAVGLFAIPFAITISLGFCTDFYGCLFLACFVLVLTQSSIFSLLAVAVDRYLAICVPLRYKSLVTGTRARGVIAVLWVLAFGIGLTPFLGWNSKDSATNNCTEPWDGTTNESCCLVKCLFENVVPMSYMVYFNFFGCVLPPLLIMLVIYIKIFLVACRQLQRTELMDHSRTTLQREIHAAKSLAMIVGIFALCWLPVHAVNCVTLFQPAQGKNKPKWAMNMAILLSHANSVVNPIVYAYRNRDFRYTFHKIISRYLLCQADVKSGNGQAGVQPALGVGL
Sequence of Adenosine A2a (ADORA2A) receptor (P29274 whole entry): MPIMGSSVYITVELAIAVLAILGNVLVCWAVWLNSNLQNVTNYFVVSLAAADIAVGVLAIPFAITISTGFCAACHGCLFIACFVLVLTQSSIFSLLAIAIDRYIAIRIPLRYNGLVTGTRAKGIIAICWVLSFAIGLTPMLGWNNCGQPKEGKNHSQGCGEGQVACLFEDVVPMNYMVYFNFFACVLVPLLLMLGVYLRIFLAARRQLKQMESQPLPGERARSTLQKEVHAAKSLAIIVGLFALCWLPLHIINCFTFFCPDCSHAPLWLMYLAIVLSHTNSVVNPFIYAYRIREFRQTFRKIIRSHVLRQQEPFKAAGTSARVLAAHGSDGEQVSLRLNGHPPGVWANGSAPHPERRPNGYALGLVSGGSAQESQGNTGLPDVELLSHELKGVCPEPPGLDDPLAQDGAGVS

Cc1ccc(-c2nc(NC(=O)C3CC3)cc3nc(C4CC4)nn23)o1 [Compound 62, N-[2-cyclopropyl-5-(5-methylfuran-2-yl)-[1,2,4]triazolo[1,5-c]pyrimidin-7-yl]cyclopropanecarboxamide]
IC50 [1]: < 10 nM | IC50 [2]: 10 to 100 nM

CC(=O)Nc1cc2nc(C3CCC3)nn2c(-c2ccc(C)o2)n1 [Compound 63, N-[2-cyclobutyl-5-(5-methylfuran-2-yl)-[1,2,4]triazolo[1,5-c]pyrimidin-7-yl]acetamide]
IC50 [1]: < 10 nM | IC50 [2]: 10 to 100 nM

Cc1ccc(-c2nc(NC(=O)C3CC3)cc3nc(C4CCC4)nn23)o1 [Compound 64, N-[2-cyclobutyl-5-(5-methylfuran-2-yl)-[1,2,4]triazolo[1,5-c]pyrimidin-7-yl]cyclopropanecarboxamide]
IC50 [1]: < 10 nM | IC50 [2]: 10 to 100 nM

CC(=O)Nc1cc2nc(C3CCCC3)nn2c(-c2ccc(C)o2)n1 [Compound 65, N-[2-cyclopentyl-5-(5-methylfuran-2-yl)-[1,2,4]triazolo[1,5-c]pyrimidin-7-yl]acetamide]
IC50 [1]: < 10 nM | IC50 [2]: 10 to 100 nM

Cc1ccc(-c2nc(NC(=O)C3CC3)cc3nc(C4CCCC4)nn23)o1 [Compound 66, N-[2-cyclopentyl-5-(5-methylfuran-2-yl)-[1,2,4]triazolo[1,5-c]pyrimidin-7-yl]cyclopropanecarboxamide]
IC50 [1]: < 10 nM | IC50 [2]: 10 to 100 nM

Cc1ccc(-c2nc(NC(=O)C3CC3)cc3nc(-c4ccco4)nn23)o1 [Compound 67, N-[2-(furan-2-yl)-5-(5-methylfuran-2-yl)-[1,2,4]triazolo[1,5-c]pyrimidin-7-yl]cyclopropanecarboxamide]
IC50 [1]: < 10 nM | IC50 [2]: 10 to 100 nM

O=C(Nc1cc2nc(C(F)(F)F)nn2c(-c2ccco2)n1)C1CC1 [Compound 68, N-[5-(furan-2-yl)-2-(trifluoromethyl)-[1,2,4]triazolo[1,5-c]pyrimidin-7-yl]cyclopropanecarboxamide]
IC50 [1]: < 10 nM | IC50 [2]: < 10 nM

Cc1nc2cc(NC(=O)C3CC3)nc(-c3ccc(C(F)(F)F)o3)n2n1 [Compound 69, N-[2-methyl-5-[5-(trifluoromethyl)furan-2-yl]-[1,2,4]triazolo[1,5-c]pyrimidin-7-yl]cyclopropanecarboxamide]
IC50 [1]: < 10 nM | IC50 [2]: 10 to 100 nM

Cc1nc2cc(NC(=O)C3CC3)nc(-c3cnn(C)c3)n2n1 [Compound 70, N-[2-methyl-5-(1-methylpyrazol-4-yl)-[1,2,4]triazolo[1,5-c]pyrimidin-7-yl]cyclopropanecarboxamide]
IC50 [1]: 100 to 1000 nM | IC50 [2]: > 1000 nM

CC(=O)Nc1cc2nc(C)nn2c(-c2cnn(C)c2)n1 [Compound 71, N-[2-methyl-5-(1-methylpyrazol-4-yl)-[1,2,4]triazolo[1,5-c]pyrimidin-7-yl]acetamide]
IC50 [1]: > 1000 nM | IC50 [2]: > 1000 nM

CC(=O)Nc1cc2nc(C)nn2c(-c2ccoc2)n1 [Compound 72, N-[5-(furan-3-yl)-2-methyl-[1,2,4]triazolo[1,5-c]pyrimidin-7-yl]acetamide]
IC50 [1]: 100 to 1000 nM | IC50 [2]: > 1000 nM

Cc1nc2cc(NC(=O)C3CC3)nc(-c3ccoc3)n2n1 [Compound 73, N-[5-(furan-3-yl)-2-methyl-[1,2,4]triazolo[1,5-c]pyrimidin-7-yl]cyclopropanecarboxamide]
IC50 [1]: 10 to 100 nM | IC50 [2]: 100 to 1000 nM

Cc1nc2c(Cl)c(N)nc(-c3ccccn3)n2n1 [Compound 74, 8-chloro-2-methyl-5-pyridin-2-yl-[1,2,4]triazolo[1,5-c]pyrimidin-7-amine]
IC50 [1]: 10 to 100 nM | IC50 [2]: > 1000 nM

Cc1cc2c(nc(-c3ccc(C)o3)n3nc(C(C)C)nc23)[nH]1 [Compound 75, 11-methyl-7-(5-methylfuran-2-yl)-4-propan-2-yl-3,5,6,8,10-pentazatricyclo[7.3.0.0^2,6]dodeca-1(9),2,4,7,11-pentaene]
IC50 [1]: < 10 nM | IC50 [2]: 10 to 100 nM

Cc1cccc(-c2nc(N)c(Cl)c3nc(C)nn23)n1 [Compound 76, 8-chloro-2-methyl-5-(6-methylpyridin-2-yl)-[1,2,4]triazolo[1,5-c]pyrimidin-7-amine]
IC50 [1]: 10 to 100 nM | IC50 [2]: > 1000 nM

Cc1nc2c(Cl)c(N)nc(-c3ccc(Cl)cc3)n2n1 [Compound 77, 8-chloro-5-(4-chlorophenyl)-2-methyl-[1,2,4]triazolo[1,5-c]pyrimidin-7-amine]
IC50 [1]: 10 to 100 nM | IC50 [2]: 10 to 100 nM

Cc1nc2c(Cl)c(N)nc(-c3cccc(Cl)c3)n2n1 [Compound 78, 8-chloro-5-(3-chlorophenyl)-2-methyl-[1,2,4]triazolo[1,5-c]pyrimidin-7-amine]
IC50 [1]: < 10 nM | IC50 [2]: 10 to 100 nM

Cc1nc2c(Cl)c(N)nc(-c3ccncc3)n2n1 [Compound 79, 8-chloro-2-methyl-5-pyridin-4-yl-[1,2,4]triazolo[1,5-c]pyrimidin-7-amine]
IC50 [1]: 10 to 100 nM | IC50 [2]: 100 to 1000 nM

Cc1nc2c(Cl)c(N)nc(-c3ccc(F)cc3)n2n1 [Compound 80, 8-chloro-5-(4-fluorophenyl)-2-methyl-[1,2,4]triazolo[1,5-c]pyrimidin-7-amine]
IC50 [1]: 10 to 100 nM | IC50 [2]: 100 to 1000 nM

Cc1cc2c(nc(-c3ccco3)n3nc(C(C)C)nc23)[nH]1 [Compound 81, 7-(furan-2-yl)-11-methyl-4-propan-2-yl-3,5,6,8,10-pentazatricyclo[7.3.0.0^2,6]dodeca-1(9),2,4,7,11-pentaene]
IC50 [1]: < 10 nM | IC50 [2]: 10 to 100 nM

Cc1cc2c(nc(-c3ccco3)n3nc(C(F)(F)F)nc23)[nH]1 [Compound 82, 7-(furan-2-yl)-11-methyl-4-(trifluoromethyl)-3,5,6,8,10-pentazatricyclo[7.3.0.0^2,6]dodeca-1(9),2,4,7,11-pentaene]
IC50 [1]: < 10 nM | IC50 [2]: < 10 nM

Cc1nc2c(Br)c(N)nc(-c3ccc(F)cc3)n2n1 [Compound 83, 8-bromo-5-(4-fluorophenyl)-2-methyl-[1,2,4]triazolo[1,5-c]pyrimidin-7-amine]
IC50 [1]: 10 to 100 nM | IC50 [2]: 100 to 1000 nM

Cc1nc2c(Cl)c(N)nc(-c3ccccc3Cl)n2n1 [Compound 84, 8-chloro-5-(2-chlorophenyl)-2-methyl-[1,2,4]triazolo[1,5-c]pyrimidin-7-amine]
IC50 [1]: > 1000 nM | IC50 [2]: > 1000 nM

Cc1nc2cc(NC(=O)C3CC3)nc(-c3ccc(F)o3)n2n1 [Compound 85, N-[5-(5-fluorofuran-2-yl)-2-methyl-[1,2,4]triazolo[1,5-c]pyrimidin-7-yl]cyclopropanecarboxamide]
IC50 [1]: < 10 nM | IC50 [2]: < 10 nM

CC(C)c1nc2c(Cl)c(N)nc(-c3ccccc3)n2n1 [Compound 86, 8-chloro-5-phenyl-2-propan-2-yl-[1,2,4]triazolo[1,5-c]pyrimidin-7-amine]
IC50 [1]: < 10 nM | IC50 [2]: 10 to 100 nM

Nc1nc(-c2ccccc2)n2nc(C(F)(F)F)nc2c1Cl [Compound 87, 8-chloro-5-phenyl-2-(trifluoromethyl)-[1,2,4]triazolo[1,5-c]pyrimidin-7-amine]
IC50 [1]: < 10 nM | IC50 [2]: 10 to 100 nM

Cc1cc2c(nc(-c3ccc(C)o3)n3nc(C(F)(F)F)nc23)[nH]1 [Compound 88, 11-methyl-7-(5-methylfuran-2-yl)-4-(trifluoromethyl)-3,5,6,8,10-pentazatricyclo[7.3.0.0^2,6]dodeca-1(9),2,4,7,11-pentaene]
IC50 [1]: < 10 nM | IC50 [2]: < 10 nM

Cc1nc2c(Br)c(N)nc(-c3ccccc3)n2n1 [Compound 89, 8-bromo-2-methyl-5-phenyl-[1,2,4]triazolo[1,5-c]pyrimidin-7-amine]
IC50 [1]: 10 to 100 nM | IC50 [2]: 10 to 100 nM

CC(=O)Nc1cc2nc(C)nn2c(-c2ccc(Br)o2)n1 [Compound 90, N-[5-(5-bromofuran-2-yl)-2-methyl-[1,2,4]triazolo[1,5-c]pyrimidin-7-yl]acetamide]
IC50 [1]: < 10 nM | IC50 [2]: < 10 nM

CC(=O)Nc1cc2nc(C3COC3)nn2c(-c2ccco2)n1 [Compound 91, N-[5-(furan-2-yl)-2-(oxetan-3-yl)-[1,2,4]triazolo[1,5-c]pyrimidin-7-yl]acetamide]
IC50 [1]: < 10 nM | IC50 [2]: 10 to 100 nM

O=C(Nc1cc2nc(C3COC3)nn2c(-c2ccco2)n1)C1CC1 [Compound 92, N-[5-(furan-2-yl)-2-(oxetan-3-yl)-[1,2,4]triazolo[1,5-c]pyrimidin-7-yl]cyclopropanecarboxamide]
IC50 [1]: < 10 nM | IC50 [2]: 10 to 100 nM

CC(=O)Nc1cc2nc(C)nn2c(-c2cccc(C(C)=O)c2)n1 [Compound 93, N-[5-(3-acetylphenyl)-2-methyl-[1,2,4]triazolo[1,5-c]pyrimidin-7-yl]acetamide]
IC50 [1]: > 1000 nM | IC50 [2]: > 1000 nM
